Experimental data reported in patent US8569511B2, “Substituted 3-(1H-benzo[d]imidazol-2-yl)-1H-indazole analogs as inhibitors of the PDK1 kinase” (University of Utah Research Foundation, priority 2011, dated 2013).
pIC50: −log10 of the molar value.

Tests used:
PDK1 [1] = target: T1, PDK1 (Homo sapiens (Human), UniProt O15530); assay: PDK1 ATP Depletion Kinase Assay (Kinase-Glo luminescence); format: biochemical; conditions: PDKtide substrate, read-out: PDK1 Kinase assays (IC50, μM) Activity Assay
T1 sequence (O15530 whole entry): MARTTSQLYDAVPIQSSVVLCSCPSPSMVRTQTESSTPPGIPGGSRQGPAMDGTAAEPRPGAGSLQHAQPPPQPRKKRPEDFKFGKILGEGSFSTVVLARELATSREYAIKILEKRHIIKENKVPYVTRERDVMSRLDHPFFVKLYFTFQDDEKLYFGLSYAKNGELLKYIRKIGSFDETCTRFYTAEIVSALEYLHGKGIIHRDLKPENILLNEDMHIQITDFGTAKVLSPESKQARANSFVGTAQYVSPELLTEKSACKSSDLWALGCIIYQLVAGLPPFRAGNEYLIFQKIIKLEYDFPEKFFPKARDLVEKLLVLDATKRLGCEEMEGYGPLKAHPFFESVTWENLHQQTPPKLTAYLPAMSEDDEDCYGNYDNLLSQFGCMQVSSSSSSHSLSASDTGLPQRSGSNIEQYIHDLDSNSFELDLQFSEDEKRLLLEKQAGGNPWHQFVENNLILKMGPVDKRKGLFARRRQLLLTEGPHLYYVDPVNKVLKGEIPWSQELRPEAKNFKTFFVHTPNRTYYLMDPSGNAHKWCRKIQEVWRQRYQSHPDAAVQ
Protocol: Test compounds were diluted to desired concentrations in kinase reaction buffer and briefly incubated with human recombinant PDK1 kinase which is histidine-tagged (Invitrogen Corporation, Carlsbad, Calif.). The reaction was subsequently initiated by the addition of ATP and PDKtide substrate (Millipore Corporation, Billerica, Massachussetts). […] After an incubation of 60 minutes at room temperature, 10 μl of the Kinase-Glo reagent (Promega Corporation, Madison, Wis.) was added to each well and incubated for an additional 10 minutes. Luminescence was measured on an EnVision microplate reader (PerkinElmer). The amount of luminescence from each reaction is inversely correlated with PDK1 kinase activity. Percent inhibition and IC50 values can be calculated by comparing enzyme activity in drug-treated wells to the appropriate controls, e.g. vehicle control.
(§1) IC50 values are determined using GraphPad Prism 5 software. The data were entered as an X-Y plot into the software as percent inhibition for each concentration of the drug. The concentration values of the drug were log transformed and the nonlinear regression was carried out using the “sigmoidal dose-response (variable slope)” option within the GraphPad software to model the data and calculate IC50 values.

PDK1 [2] = target: T1, PDK1; assay: Time resolved-FRET LanthaScreen Kinase Binding Assay; conditions: TR-FRET Lanthascreen Kinase Binding Assay; read-out: PDK1 Kinase assays (IC50, μM) Binding Assay
From the text: Binding of the tracer to the kinase is detected using a europium-labeled anti-tag antibody, which binds to the kinase of interest. […] Binding of an inhibitor to the kinase competes for binding with the tracer, resulting in a loss of FRET.
Activity of compounds was routinely assessed using a secondary assay as described herein. The secondary assay was a time resolved-FRET LanthaScreen Kinase Binding Assay (Invitrogen Corporation, Carlsbad, Calif.). This assay evaluates the ability of the test compound to compete with a fluorescently-labeled tracer molecule to bind in the ATP pocket of a kinase. The assay signal is generated when a Europium-conjugated anti-His tag antibody (Invitrogen) bound to the His-tagged kinase produces a TR-FRET signal with the tracer molecule bound in the ATP pocket of the kinase. […] After 60 minutes of incubation at room temperature, the TR-FRET signal was measured on an EnVision microplate reader.
as §1

PDK1 [3] = target: T1, PDK1; assay: PDK1 fluorometric activity assay performed by Life Technologies; format: biochemical; conditions: fluorometric assay performed by Life Technologies (Table IV); read-out: PDK1 Kinase assays (IC50)
Protocol: PDK1 biochemical activity was measured by a fluorometric assay performed by Life Technologies (Grand Island, N.Y.). The assay conditions for PDK1 are as follows. The 2×PDK1/Ser/Thr-07 mixture is prepared in 50 mM Tris pH 8.5, 0.01% BRIJ-35, 10 mM MgCl2, 1 mM EGTA, 0.02% NaN3.
The kinase specificity was measured using fluorometric assays performed by Life Technologies (Grand Island, N.Y.). Assay conditions vary for each kinase and are available from Life Technologies, Grand Island, NY. For example, the assay conditions for PDK1 are as follows. The 2×PDK1/Ser/Thr-07 mixture is prepared in 50 mM Tris pH 8.5, 0.01% BRIJ-35, 10 mM MgCl2, 1 mM EGTA, 0.02% NaN3.

AN3-CA cells = assay: Cell viability assay (ATP-lite); format: cell-based; conditions: Homo sapiens; AN3-CA (PTEN and PIK3R1 mutations); read-out: Cell Viability IC50 AN3-CA
Protocol: (§2) AN3-CA (PTEN-deficient), RL95-2 (PTEN-deficient), and HEC-1A (PTEN-wild type) cells were plated in 45 μl of RPMI-1640 media supplemented with 10% FBS and 1% Pen/Strep at a density of 1000 cells per well in white 384-well plates. Cells were allowed to attach by incubation overnight at 37° C. and 5% CO2. Test compounds were diluted to 10× concentrations in RPMI-1640 media (containing 3% DMSO) and 5 μl 1 of these dilutions were added in triplicate to the appropriate wells containing the cells. The plates containing the drug-treated cells and appropriate controls were incubated for 96 hours. At the end of the incubation, 40 μl of ATP-lite (PerkinElmer, Inc., Waltham, Massachussetts) reagent were added to each well and luminescence signal was measured on an EnVision microplate reader.
(§3) Alternatively, AN3-CA, RL95-2, HEC-1A endometrial cancer cell lines were plated at a density of 2000 cells per well in a 96 well culture plate in 45 μl of cell culture media and incubated overnight. The following day, test compounds were added to the cells in 5 μl of serum-free media to generate final concentrations of 10, 3, 1, 0.3, 0.1, 0.03, 0.01, or 0.003 μM. Vehicle treated controls were also included and each condition was applied in quadruplicate. Following 96 hours of incubation, 35 μL of ATP-lite (PerkinElmer) reagent was added each well and allowed to react for 10 minutes. Plate was read on a Envision 2104 MultiLabel reader (PerkinElmer).
as §1

HEC-1A cells = assay: Cell viability assay (ATP-lite); format: cell-based; conditions: Homo sapiens; HEC-1A (PTEN-wild type); read-out: Cell Viability IC50 HEC-1A
Protocol: as §2
as §3, with “The following day, test compounds were added to the cells in 5 μl of serum-free media to generate final concentrations of 10, 3, 1, 0.3, 0.1, 0.03, 0.01, or 0.003 μM.” left out
as §1

RL95-2 cells = assay: Cell viability assay (ATP-lite); format: cell-based; conditions: Homo sapiens; RL95-2 (PTEN mutation); read-out: Cell Viability IC50 RL95-2
Protocol: as §2
as §3, with “The following day, test compounds were added to the cells in 5 μl of serum-free media to generate final concentrations of 10, 3, 1, 0.3, 0.1, 0.03, 0.01, or 0.003 μM.” left out
as §1

SMILES	IC50 (PDK1 [1])	IC50 (PDK1 [2])	pIC50 (PDK1 [3])	pIC50 (AN3-CA cells)	pIC50 (HEC-1A cells)	pIC50 (RL95-2 cells)
CS(=O)(=O)c1cccc(-c2ccc3[nH]nc(-c4nc5ccccc5[nH]4)c3c2)c1 [Compound 14]	23.7 µM	15.3 µM	4.82	5.00	4.70	4.45
FC(F)(F)c1cccc(-c2ccc3[nH]nc(-c4nc5ccccc5[nH]4)c3c2)c1 [Compound 15]	55.7 µM	30.3 µM	4.52			
CC(C)(C#N)c1ccc(-c2ccc3[nH]nc(-c4nc5ccccc5[nH]4)c3c2)cc1 [Compound 16]	58.5 µM	5.17 µM	5.28	4.10	4.54	4.82
O=C(Nc1ccc2[nH]nc(-c3nc4ccccc4[nH]3)c2c1)Nc1ccc(F)cc1F [Compound 17]	> 100 µM	> 100 µM				
CN1CCC(C)(C(=O)Nc2ccc3[nH]nc(-c4nc5ccccc5[nH]4)c3c2)CC1 [Compound 18]	> 100 µM			4.81	4.25	5.20
O=C(Nc1ccc2[nH]nc(-c3nc4ccccc4[nH]3)c2c1)NC1CCCC1 [Compound 19]	> 100 µM					
O=C(Nc1ccc2[nH]nc(-c3nc4ccccc4[nH]3)c2c1)C1CCN(c2ccncc2)CC1 [Compound 20]	> 100 µM	> 100 µM				
O=C(Nc1ccc2c(-c3nc4ccc(N5CCOCC5)cc4[nH]3)n[nH]c2c1)C1CC1(F)F (centres unmarked) [Compound 21]	> 100 µM	> 100 µM				

These reach a lower IC50 (PDK1 [1]). Values come first.

IC50 (PDK1 [1])	IC50 (PDK1 [2])	pIC50 (PDK1 [3])	SMILES	pIC50 (AN3-CA cells)	pIC50 (HEC-1A cells)	pIC50 (RL95-2 cells)
0.283 µM	0.229 µM	6.64	O=C(Nc1ccc2[nH]nc(-c3nc4cc(N5CCOCC5)ccc4[nH]3)c2c1)C1CC1 [Compound 3]			
0.304 µM	0.265 µM	6.58	O=C(Nc1ccc2[nH]nc(-c3nc4cc(N5CCOCC5)ccc4[nH]3)c2c1)C1CCC(F)(F)CC1 [Compound 4]			
0.78 µM		6.11	CC1CCN(c2ccc3[nH]c(-c4n[nH]c5ccc(NC(=O)C6CC6(F)F)cc45)nc3c2)CC1 (centres unmarked) [Compound 5]			
1.5 µM	0.41 µM	6.39	O=C(Nc1ccc2[nH]nc(-c3nc4ccccc4[nH]3)c2c1)C1CCC(F)(F)CC1 [Compound 6]	5.68	5.02	5.64
1.74 µM	1.23 µM	5.91	O=C(Nc1ccc2[nH]nc(-c3nc4ccccc4[nH]3)c2c1)C1CC1 [Compound 7]			
1.94 µM	0.28 µM	6.55	O=C(Nc1ccc2[nH]nc(-c3nc4ccccc4[nH]3)c2c1)C1CC1(F)F (centres unmarked) [Compound 8]	6.48	4.83	5.16
3.75 µM	1.22 µM	5.91	O=C(Nc1ccc2[nH]nc(-c3nc4cc(CN5CCOCC5)ccc4[nH]3)c2c1)C1CC1(F)F (centres unmarked) [Compound 9]	6.35	4.74	5.49
4.4 µM	0.385 µM	6.41	O=C(Nc1cccc2[nH]nc(-c3nc4ccc(N5CCOCC5)cc4[nH]3)c12)C1CC1(F)F (centres unmarked) [Compound 10]			
10.9 µM			Brc1ccc2[nH]nc(-c3nc4ccccc4[nH]3)c2c1 [Compound 11]	4.92	4.53	4.94
11.6 µM	0.92 µM	6.04	O=C(Nc1ccc2[nH]nc(-c3nc4ccccc4[nH]3)c2c1)NC1CC1 [Compound 12]	4.74	4.90	4.77
21.1 µM	8.79 µM	5.06	O=C(Nc1ccc2[nH]nc(-c3nc4ccccc4[nH]3)c2c1)c1cccc(F)c1 [Compound 13]	4.62	4.29	4.82
